# Measured values from patent publication US6358885B1, “Substituted phenylheterocyclic herbicides” (Mississippi State University, priority 1992, dated 2002).
# Assays:
# Assay in all cases: Test B preemergence/postemergence greenhouse plant response rating 0 to 10
# blackgrass = format: in vivo, Alopecurus myosuroides; details: for Plant response rating, Blackgrass: 0 to 10 scale
# Summary of the method: (§1)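 Test chemicals were sprayed onto freshly planted seed and, concurrently, onto young plants between the one and four leaf stage. After a twelve- to sixteen-day greenhouse period, each species was visually compared with untreated controls.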
# corn = format: in vivo, Zea mays; details: for Plant response rating, Corn: 0 to 10 scale
# Summary of the method: as §1
# lambsquarters = format: in vivo, Chenopodium album; details: for Plant response rating, Lambsquarter: 0 to 10 scale
# Summary of the method: as §1
# sugar beet = format: in vivo, Beta vulgaris; details: for Plant response rating, Sugar beet: 0 to 10 scale
# Summary of the method: as §1
# wheat = format: in vivo, Triticum aestivum; details: for Plant response rating, Wheat: 0 to 10 scale
# Summary of the method: as §1
# cotton = format: in vivo, Gossypium hirsutum; details: for Plant response rating, Cotton: 0 to 10 scale
# Summary of the method: as §1
# crabgrass = format: in vivo, Digitaria spp.; details: for Plant response rating, Crabgrass: 0 to 10 scale
# Summary of the method: as §1
# wild oat = format: in vivo, Avena fatua; details: for Plant response rating, Wild oat: 0 to 10 scale
# Summary of the method: as §1
# bedstraw = format: in vivo, Galium aparine; details: for Plant response rating, Bedstraw: 0 to 10 scale
# Summary of the method: as §1
# chickweed = format: in vivo, Stellaria media; details: for Plant response rating, Chickweed: 0 to 10 scale
# Summary of the method: as §1
# sorghum = format: in vivo, Sorghum bicolor; details: for Plant response rating, Sorghum: 0 to 10 scale
# Summary of the method: as §1
# morningglory = format: in vivo, Ipomoea hederacea; details: for Plant response rating, Morningglory: 0 to 10 scale
# Summary of the method: as §1
# wild buckwheat = format: in vivo, Polygonum convolvulus; details: for Plant response rating, Wild buckwheat: 0 to 10 scale
# Summary of the method: as §1
# purple nutsedge = format: in vivo, Cyperus rotundus; details: for Plant response rating, Nutsedge: 0 to 10 scale
# Summary of the method: as §1
# barley = format: in vivo, Hordeum vulgare; details: for Plant response rating, Barley: 0 to 10 scale
# Summary of the method: as §1
# soybean = format: in vivo, Glycine max; details: for Plant response rating, Soybean: 0 to 10 scale
# Summary of the method: as §1
# cheatgrass = format: in vivo, Bromus secalinus; details: for Plant response rating, Cheatgrass: 0 to 10 scale
# Summary of the method: as §1
# rape = format: in vivo, Brassica napus; details: for Plant response rating, Rape: 0 to 10 scale
# Summary of the method: as §1
# barnyardgrass = format: in vivo, Echinochloa crus-galli; details: for Plant response rating, Barnyardgrass: 0 to 10 scale
# Summary of the method: as §1
# giant foxtail = format: in vivo, Setaria faberii; details: for Plant response rating, Giant foxtail: 0 to 10 scale
# Summary of the method: as §1
# cocklebur = format: in vivo, Xanthium pensylvanicum; details: for Plant response rating, Cocklebur: 0 to 10 scale
# Summary of the method: as §1
# rice = format: in vivo, Oryza sativa; details: for Plant response rating, Rice: 0 to 10 scale
# Summary of the method: as §1
# velvetleaf = format: in vivo, Abutilon theophrasti; details: for Plant response rating, Velvetleaf: 0 to 10 scale
# Summary of the method: as §1
smiles,measurement,setting,value
C=CCOc1cc(-c2nn3c(c2Cl)CCCC3)c(Cl)cc1Cl [Compound 71],"Plant response rating, Blackgrass","blackgrass; POSTEMERGENCE, Rate 50 g/ha",4
same,"Plant response rating, Blackgrass","blackgrass; PREEMERGENCE, Rate 50 g/ha",0
same,"Plant response rating (0 to 10 scale), Blackgrass","blackgrass; PREEMERGENCE, Rate 200 g/ha",0
same,"Plant response rating, Blackgrass","blackgrass; Rate 200 g/ha, POSTEMERGENCE",6
same,"Plant response rating, Corn","corn; POSTEMERGENCE, Rate 50 g/ha",3
same,"Plant response rating, Corn","corn; PREEMERGENCE, Rate 50 g/ha",0
same,"Plant response rating (0 to 10 scale), Corn","corn; PREEMERGENCE, Rate 200 g/ha",2
same,"Plant response rating, Corn","corn; Rate 200 g/ha, POSTEMERGENCE",3
same,"Plant response rating, Lambsquarter","lambsquarters; POSTEMERGENCE, Rate 50 g/ha",10
same,"Plant response rating, Lambsquarter","lambsquarters; PREEMERGENCE, Rate 50 g/ha",10
same,"Plant response rating (0 to 10 scale), Lambsquarter","lambsquarters; PREEMERGENCE, Rate 200 g/ha",10
same,"Plant response rating, Lambsquarter","lambsquarters; Rate 200 g/ha, POSTEMERGENCE",10
same,"Plant response rating, Sugar beet","sugar beet; POSTEMERGENCE, Rate 50 g/ha",10
same,"Plant response rating, Sugar beet","sugar beet; PREEMERGENCE, Rate 50 g/ha",5
same,"Plant response rating (0 to 10 scale), Sugar beet","sugar beet; PREEMERGENCE, Rate 200 g/ha",10
same,"Plant response rating, Sugar beet","sugar beet; Rate 200 g/ha, POSTEMERGENCE",10
same,"Plant response rating, Wheat","wheat; POSTEMERGENCE, Rate 50 g/ha",4
same,"Plant response rating, Wheat","wheat; PREEMERGENCE, Rate 50 g/ha",0
same,"Plant response rating (0 to 10 scale), Wheat","wheat; PREEMERGENCE, Rate 200 g/ha",2
same,"Plant response rating, Wheat","wheat; Rate 200 g/ha, POSTEMERGENCE",6
same,"Plant response rating, Cotton","cotton; POSTEMERGENCE, Rate 50 g/ha",10
same,"Plant response rating, Cotton","cotton; PREEMERGENCE, Rate 50 g/ha",0
same,"Plant response rating (0 to 10 scale), Cotton","cotton; PREEMERGENCE, Rate 200 g/ha",0
same,"Plant response rating, Cotton","cotton; Rate 200 g/ha, POSTEMERGENCE",10
same,"Plant response rating, Crabgrass","crabgrass; POSTEMERGENCE, Rate 50 g/ha",3
same,"Plant response rating, Crabgrass","crabgrass; PREEMERGENCE, Rate 50 g/ha",0
same,"Plant response rating (0 to 10 scale), Crabgrass","crabgrass; PREEMERGENCE, Rate 200 g/ha",5
same,"Plant response rating, Crabgrass","crabgrass; Rate 200 g/ha, POSTEMERGENCE",3
same,"Plant response rating, Wild oat","wild oat; POSTEMERGENCE, Rate 50 g/ha",3
same,"Plant response rating, Wild oat","wild oat; PREEMERGENCE, Rate 50 g/ha",2
same,"Plant response rating (0 to 10 scale), Wild oat","wild oat; PREEMERGENCE, Rate 200 g/ha",2
same,"Plant response rating, Wild oat","wild oat; Rate 200 g/ha, POSTEMERGENCE",5
same,"Plant response rating, Bedstraw","bedstraw; POSTEMERGENCE, Rate 50 g/ha",8
same,"Plant response rating, Bedstraw","bedstraw; PREEMERGENCE, Rate 50 g/ha",2
same,"Plant response rating (0 to 10 scale), Bedstraw","bedstraw; PREEMERGENCE, Rate 200 g/ha",6
same,"Plant response rating, Bedstraw","bedstraw; Rate 200 g/ha, POSTEMERGENCE",9
same,"Plant response rating, Chickweed","chickweed; POSTEMERGENCE, Rate 50 g/ha",2
same,"Plant response rating, Chickweed","chickweed; PREEMERGENCE, Rate 50 g/ha",0
same,"Plant response rating (0 to 10 scale), Chickweed","chickweed; PREEMERGENCE, Rate 200 g/ha",0
same,"Plant response rating, Chickweed","chickweed; Rate 200 g/ha, POSTEMERGENCE",3
same,"Plant response rating, Sorghum","sorghum; POSTEMERGENCE, Rate 50 g/ha",6
same,"Plant response rating, Sorghum","sorghum; PREEMERGENCE, Rate 50 g/ha",0
same,"Plant response rating (0 to 10 scale), Sorghum","sorghum; PREEMERGENCE, Rate 200 g/ha",0
same,"Plant response rating, Sorghum","sorghum; Rate 200 g/ha, POSTEMERGENCE",6
same,"Plant response rating, Morningglory","morningglory; POSTEMERGENCE, Rate 50 g/ha",10
same,"Plant response rating, Morningglory","morningglory; PREEMERGENCE, Rate 50 g/ha",0
same,"Plant response rating (0 to 10 scale), Morningglory","morningglory; PREEMERGENCE, Rate 200 g/ha",0
same,"Plant response rating, Morningglory","morningglory; Rate 200 g/ha, POSTEMERGENCE",10
same,"Plant response rating, Wild buckwheat","wild buckwheat; POSTEMERGENCE, Rate 50 g/ha",10
same,"Plant response rating, Wild buckwheat","wild buckwheat; PREEMERGENCE, Rate 50 g/ha",0
same,"Plant response rating (0 to 10 scale), Wild buckwheat","wild buckwheat; PREEMERGENCE, Rate 200 g/ha",10
same,"Plant response rating, Wild buckwheat","wild buckwheat; Rate 200 g/ha, POSTEMERGENCE",10
same,"Plant response rating, Nutsedge","purple nutsedge; POSTEMERGENCE, Rate 50 g/ha",2
same,"Plant response rating, Nutsedge","purple nutsedge; PREEMERGENCE, Rate 50 g/ha",0
same,"Plant response rating (0 to 10 scale), Nutsedge","purple nutsedge; PREEMERGENCE, Rate 200 g/ha",5
same,"Plant response rating, Nutsedge","purple nutsedge; Rate 200 g/ha, POSTEMERGENCE",2
same,"Plant response rating, Barley","barley; POSTEMERGENCE, Rate 50 g/ha",3
same,"Plant response rating, Barley","barley; PREEMERGENCE, Rate 50 g/ha",0
same,"Plant response rating (0 to 10 scale), Barley","barley; PREEMERGENCE, Rate 200 g/ha",0
same,"Plant response rating, Barley","barley; Rate 200 g/ha, POSTEMERGENCE",4
same,"Plant response rating, Soybean","soybean; POSTEMERGENCE, Rate 50 g/ha",6
same,"Plant response rating, Soybean","soybean; PREEMERGENCE, Rate 50 g/ha",0
same,"Plant response rating (0 to 10 scale), Soybean","soybean; PREEMERGENCE, Rate 200 g/ha",0
same,"Plant response rating, Soybean","soybean; Rate 200 g/ha, POSTEMERGENCE",7
same,"Plant response rating, Cheatgrass","cheatgrass; POSTEMERGENCE, Rate 50 g/ha",4
same,"Plant response rating, Cheatgrass","cheatgrass; PREEMERGENCE, Rate 50 g/ha",0
same,"Plant response rating (0 to 10 scale), Cheatgrass","cheatgrass; PREEMERGENCE, Rate 200 g/ha",2
same,"Plant response rating, Cheatgrass","cheatgrass; Rate 200 g/ha, POSTEMERGENCE",6
same,"Plant response rating, Rape","rape; POSTEMERGENCE, Rate 50 g/ha",8
same,"Plant response rating, Rape","rape; PREEMERGENCE, Rate 50 g/ha",0
same,"Plant response rating (0 to 10 scale), Rape","rape; PREEMERGENCE, Rate 200 g/ha",3
same,"Plant response rating, Rape","rape; Rate 200 g/ha, POSTEMERGENCE",10
same,"Plant response rating, Barnyardgrass","barnyardgrass; POSTEMERGENCE, Rate 50 g/ha",6
same,"Plant response rating, Barnyardgrass","barnyardgrass; PREEMERGENCE, Rate 50 g/ha",0
same,"Plant response rating (0 to 10 scale), Barnyardgrass","barnyardgrass; PREEMERGENCE, Rate 200 g/ha",5
same,"Plant response rating, Barnyardgrass","barnyardgrass; Rate 200 g/ha, POSTEMERGENCE",8
same,"Plant response rating, Giant foxtail","giant foxtail; POSTEMERGENCE, Rate 50 g/ha",5
same,"Plant response rating, Giant foxtail","giant foxtail; PREEMERGENCE, Rate 50 g/ha",0
same,"Plant response rating (0 to 10 scale), Giant foxtail","giant foxtail; PREEMERGENCE, Rate 200 g/ha",8
same,"Plant response rating, Giant foxtail","giant foxtail; Rate 200 g/ha, POSTEMERGENCE",6
same,"Plant response rating, Cocklebur","cocklebur; POSTEMERGENCE, Rate 50 g/ha",7
same,"Plant response rating, Cocklebur","cocklebur; PREEMERGENCE, Rate 50 g/ha",0
same,"Plant response rating (0 to 10 scale), Cocklebur","cocklebur; PREEMERGENCE, Rate 200 g/ha",0
same,"Plant response rating, Cocklebur","cocklebur; Rate 200 g/ha, POSTEMERGENCE",8
same,"Plant response rating, Rice","rice; POSTEMERGENCE, Rate 50 g/ha",4
same,"Plant response rating, Rice","rice; PREEMERGENCE, Rate 50 g/ha",0
same,"Plant response rating (0 to 10 scale), Rice","rice; PREEMERGENCE, Rate 200 g/ha",0
same,"Plant response rating, Rice","rice; Rate 200 g/ha, POSTEMERGENCE",5
same,"Plant response rating, Velvetleaf","velvetleaf; POSTEMERGENCE, Rate 50 g/ha",10
same,"Plant response rating, Velvetleaf","velvetleaf; PREEMERGENCE, Rate 50 g/ha",0
same,"Plant response rating (0 to 10 scale), Velvetleaf","velvetleaf; PREEMERGENCE, Rate 200 g/ha",10
same,"Plant response rating, Velvetleaf","velvetleaf; Rate 200 g/ha, POSTEMERGENCE",10
